“Also recorded” adds a separate entry of the source.
Experiments:
[1] = test system: TLR4 expression on macrophages; test: Flow cytometry of TLR4 receptor on macrophages; assay type: cell-based, human; conditions: 48 h incubation
Description: The effect of the above-listed compounds on the expression of the TLR4 receptor and the CD86 protein was studied by flow cytometry after 48 h incubation with macrophages. The interaction of bacterial endotoxins with the TLR4 receptor is known to activate the expression of several pro-inflammatory cytokine genes, while the co-stimulatory molecule CD86 plays an important role in […] inflammatory responses. A decrease in the expression of the TLR4 receptor was observed under the action of all tested compounds (Figure 4c,e), the rank order of these TLR4-suppressing effects was as follows: hypaphorine (14%) < PNU 282,987 (21%) < 6ID (31%).
(§1) Peripheral blood mononuclear cells (PBMCs) were separated by Ficoll-Paque PLUS density gradient centrifugation. PBMCs were placed in a sterile Petri dish and incubated at 37 °C for 2 h. Unattached cells were then removed by washing with PBS and substituted with fresh complete RPMI 1640 medium. To generate monocyte-derived macrophages (MDMs), 50 ng/mL GM-CSF was added to the isolated monocytes and cultured for 6 days to differentiate them into non-polarized MDMs.
(§2) Figure 4 The effects of PNU 282987, hypaphorine, and D-6-iodohypaphorine methyl ester (6ID) on macrophage membrane proteins expression. Cells were treated with these compounds for 48 h and then analyzed by flow cytometry. PNU 282,987 led to an increase in the (a) CD11b and (b) CD11c expression. (c): All tested compounds led to a decrease in TLR4 expression. (d): Macrophages stimulation with hypaphorine and 6ID promoted an increase in CD86 expression. Results obtained in three independent experiments on macrophages from different donors and presented as mean ± SD. One-way ANOVA tests with Tukey post hoc test: * p ˂0.05, ** p ˂ 0.01, **** p < 0.0001 in comparison with untreated cells.

STAT3 phosphorylation = STAT3 phosphorylation in LPS-stimulated macrophages (flow cytometry); assay type: cell-based, human; conditions: compound 1 h, then LPS 3 h; control MFI 49
Description: To gain an insight into the signaling induced by the tested compounds, ERK1/2 and STAT3 phosphorylation was checked. Macrophages were treated with tested compounds for 1 h, after which they were stimulated with LPS for 3 h.
as §1
Figure 5 Effects of the analyzed compounds on signaling pathways in LPS-stimulated macrophages. Cells were treated with PNU 282987, hypaphorine, or 6-iodohypaphorine methyl ester (6ID) for 1 h and then stimulated with LPS for 3 h. Phosphorylated ERK1/2 and STAT3 were quantified by flow cytometry with specific antibodies. […] (c): Representative histogram showing the increase in ERK 1/2 phosphorylation in comparison to control. The numbers in the histograms show the MFI ± SD (n = 3). MFI—geometrical mean fluorescence intensity. One-way ANOVA tests with Tukey post hoc test: * p ˂ 0.05, ** p ˂ 0.01, *** p < 0.001 in comparison with untreated cells. TEXT PRINTED IN THE PICTURE: (c) Control: PE-ERK 1/2 Phospho: 193.7±1.5 | (c) PNU 282987: PE-ERK 1/2 Phospho: 251.3±13.7 | (c) Hy: PE-ERK 1/2 Phospho: 246.0±15.7 | (c) 6ID: PE-ERK 1/2 Phospho: 273.7±8.1 DOUBTS OF THE COPYIST ABOUT THIS PICTURE: Panel c: no measure or unit is printed beside the numbers; the x-axis label "PE-ERK 1/2 Phospho" is used as the measure / "Control" is the untreated reference rather than a substance; it is included because a value is printed with it

[2] = test system: carrageenan-induced inflammation; test: Carrageenan-induced inflammation test; assay type: in vivo, ICR mice; conditions: for oedema (paw diameter): 0.5 mg/kg (hypaphorine and 6ID also 1 mg/kg); for analgesia in von Frey test: versus vehicle
Description: Subplantar 1% carrageenan injections in a volume of 30 μL into the right hind paw were carried out to generate an inflammation model in mice. The paw volume was measured beforehand using an electronic calliper. The maximum effect of the introduction of carrageenan was observed after 3 h. […] The control group was treated with saline (0.9% NaCl). Two hours after the drug administration (total 3 h from carrageenan injection), the size of the pad of the right hind paw was measured, the von Frey test and paw pressure analgesimeter pain sensitivity assessment were performed.
Carrageenan inflammation was induced by injecting 30 μL of a 1% carrageenan suspension (Sigma-Aldrich, lot #SLBK3896V) into the subplantar surface of the ICR mice hind paw. The oedema degree of the carrageenan-induced paw was evaluated using an electronic calliper by the volume difference of the animal’s right hind paw after (3 h from carrageenan injection) and before being hurt by carrageenan.
[…] The control group was treated with saline (0.9% NaCl).
Antinociceptive testing was performed 2 h after the drug administration (3 h after carrageenan injection).
Nociceptive testing was performed by utilizing the von Frey test and Paw pressure test.
The animals were placed in 20 cm × 20 cm Plexiglas boxes equipped with a metallic mesh floor. Animals were allowed to habituate themselves to their environment for 15 min before the test. […] The paw sensitivity threshold was defined as the minimum force required to elicit a robust and immediate withdrawal reflex of the paw. Spontaneous movements associated with locomotion were not considered as a withdrawal response. Measurements were repeated 3 times and the final value was obtained by averaging the 3 measurements.
Mechanical hyperalgesia was measured as a paw withdrawal response to a gradual increase of mechanical pressure applied by the Rodent pinchers—analgesia meter (model BIO-RP-M; BioSeb, Vitrolles, France). The influence of stimulation on each hind paw was recorded three times. The maximum force applied to the paw was recorded as the grams (g) of force on the dynamometer.

[3] = test system: CD11c expression on macrophages; test: Flow cytometry of macrophage membrane protein CD11c; assay type: cell-based, human; conditions: 48 h
Description: The selective agonist PNU 282,987 increased CD11b and CD11c protein expression by an average of 10% and 26%, respectively (Figure 4a,b).
as §1, §2

Structure (SMILES) | decrease in the expression of the TLR4 receptor [1] [%] | STAT3 phosphorylation, MFI (STAT3 phosphorylation) | analgesia in paw pressure test (mechanical hyperalgesia) ([2]; mice, 2 h after drug) | oedema (paw diameter) ([2]; mice, 2 h after drug) | oedema (paw diameter) ([2]; mice, 2 h after drug, listed as synthetic hypaphorine) | analgesia in von Frey test ([2]; mice, 2 h after drug) | increase in CD11c protein expression [3] | oedema (paw diameter) ([2]; mice, 2 h after drug, listed as 6ND) | oedema (paw diameter) ([2]; mice, 2 h after drug, listed as 6ID) | carrageenan-induced allodynia and hyperalgesia ([2]; rodents, doses 0.1 and 0.5 mg/kg) | increase in CD11c protein expression ([3]; listed as 6ID)
C[N+](C)(C)[C@H](Cc1c[nH]c2ccccc12)C(=O)[O-] [Compound 16, L-hypaphorine, reference compound] | 14 | increase in the phosphorylation | strong evidence of analgesia in algesimeter and von Frey tests | only a tendency to decrease oedema, not statistically significant | No significant effect | significant analgesia | but not 6ID or hypaphorine, leads to a significant increase | – | – | – | –
COC(=O)C(Cc1c[nH]c2cc([N+](=O)[O-])ccc12)[N+](C)(C)C (stereo not drawn) [Compound 5, methyl ester of 6-nitrohypaphorine] | – | – | – | – | – | significant analgesia | – | moderate anti-oedemic effect at a dose of 0.5 mg/kg | – | – | –
COC(=O)[C@@H](Cc1c[nH]c2cc(I)ccc12)[N+](C)(C)C [Compound 1, (D)-6-iodohypaphorine methyl ester] | 31 | 58 | – | – | – | significant analgesia | – | – | marked decrease in paw diameter at doses 0.5 and 1 mg/kg | decreased carrageenan-induced allodynia and hyperalgesia | not statistically significant; also recorded: but not 6ID or hypaphorine, leads to a significant increase

From PMC10305119, “Analogs of 6-Bromohypaphorine with Increased Agonist Potency for α7 Nicotinic Receptor as Anti-Inflammatory Analgesic Agents” (Marine Drugs, 2023)
